Like-named read-outs stand apart in the source and are kept apart here.
Legend:
Colo320 = assay: cells; assay type: cell-based
SNU-C1 = assay: cells; assay type: cell-based
HT-29 = assay: cells; assay type: cell-based
HCT116 = assay: cells; assay type: cell-based
HeLa cells = assay: cells; assay type: cell-based
RKO = assay: cells; assay type: cell-based
[1] = test system: HCT116 cells treated with a GSK3β inhibitor; assay: cells; assay type: cell-based; conditions: assay number 26, GSK3b inhibitor pretreated
DLD-1 = assay: cells; assay type: cell-based
SW480 = assay: cells; assay type: cell-based
[2] = test system: endothelial tube formation in co-cultures of ECFCs and ADSCs treated with VEGF; assay: cells; assay type: cell-based, human
[3] = test system: ECFC/ADSC co-culture cell nuclei number

Row | SMILES | Basal_Viability ATP Colo 320 IC50/EC50 (Colo320; assay number 27, basal) [µM] | Basal_Viability ATP SNU-C1 IC50/EC50 (SNU-C1; assay number 30, basal) [µM] | Basal_Viability ATP HT-29 IC50/EC50 (HT-29; assay number 28, basal) [µM] | Basal_Viability ATP HCT116 IC50/EC50 (HCT116; assay number 25, basal) [µM] | Basal_Viability ATP RKO IC50/EC50 (RKO; assay number 29, basal) [µM] | GSK3b inh pretreated_Viability ATP HCT116 IC50/EC50 [1] [µM] | Basal_Viability ATP DLD-1 IC50/EC50 (DLD-1; assay number 23, basal) [µM] | Basal_Viability ATP SW480 IC50/EC50 (SW480; assay number 24, basal) [µM] | also measured
1 | Nc1nc(Cl)nc2c1ncn2[C@@H]1O[C@H](CO)[C@@H](O)[C@@H]1F [NCGC00164553-02] | > 20 | > 20 | > 20 | 0.001 | 0.001 | 0.001 | 0.1636 | – | Hela CellCycMod PI 2N IC50/EC50 (HeLa cells; assay number 14, 2N): > 10 µM; Hela CellCycMod PI S Phase IC50/EC50 (HeLa cells; assay number 15, S phase): > 10 µM; Hela CellCycMod PI 4N IC50/EC50 (HeLa cells; assay number 16, 4N): > 10 µM; Hela CellCycMod PI MI IC50/EC50 (HeLa cells; assay number 17, MI): > 10 µM; Hela CellCycMod PI Cell Number IC50/EC50 (HeLa cells; assay number 18, cell number): 0.00516 µM
2 | CCCCCCCCCCCCCCCCC(C(=O)O)C(O)(CC(=O)O)C(=O)O (centres unmarked) [NCGC00167547-02] | 1.3621 | 1.3613 | 4.0996 | 8.6847 | 3.4822 | 4.3382 | 4.2832 | 1.1952 | –
3 | Cc1ccc(C(=O)c2cc(O)c(O)c([N+](=O)[O-])c2)cc1 [NCGC00181767-03] | 2.503 | 4.536 | > 20 | 2.292 | 1.876 | 0.265 | 6.142 | 4.644 | –
4 | O=C(Nc1ccc(Cl)cc1)Nc1ccc(Cl)c(C(F)(F)F)c1 [NCGC00185743-02] | – | – | – | – | – | – | – | – | IC50 (Colo320; assay number 27, basal, read-out: Basal_Viability ATP Colo 320 summarized IC50): 0.003 µM; IC50 (SW480; assay number 24, basal, read-out: Basal_Viability ATP SW480 summarized IC50): 0.009 µM; IC50 (SNU-C1; assay number 30, basal, read-out: Basal_Viability ATP SNU-C1 summarized IC50): 0.009 µM; IC50 (HT-29; assay number 28, basal, read-out: Basal_Viability ATP HT-29 summarized IC50): 0.001 µM; IC50 (HCT116; assay number 25, basal, read-out: Basal_Viability ATP HCT116 summarized IC50): 0.003 µM; IC50 (RKO; assay number 29, basal, read-out: Basal_Viability ATP RKO summarized IC50): 0.003 µM; IC50 ([1]; read-out: GSK3b inh pretreated_Viability ATP HCT116 summarized IC50): 0.003 µM; IC50 (DLD-1; assay number 23, basal, read-out: Basal_Viability ATP DLD-1 summarized IC50): 0.027 µM
5 | C/C(=C(/OCCOc1ccc(Cl)cc1)c1ccc(Cl)cc1Cl)n1ccnc1 [NCGC00249921-01] | – | – | – | – | – | – | – | – | Basal_Viability ATP Colo 320 IC50/EC50 (Colo320): 5.8551 µM; Basal_Viability ATP SW480 IC50/EC50 (SW480): 8.4611 µM; Basal_Viability ATP SNU-C1 IC50/EC50 (SNU-C1): 2.3457 µM; VEGF_ADSC\ECFC Angio CD31 TubeArea IC50/EC50 [2]: 5.8398 µM; VEGF_ADSC\ECFC Angio Hoechst NucArea IC50/EC50 [3]: 9.416 µM; Basal_Viability ATP HT-29 IC50/EC50 (HT-29): > 6.667 µM; Basal_Viability ATP HCT116 IC50/EC50 (HCT116): > 6.6667 µM; Basal_Viability ATP RKO IC50/EC50 (RKO): > 6.6667 µM; Basal_Viability ATP DLD-1 IC50/EC50 (DLD-1): 4.1804 µM
6 | CN(C)[C@@H](CCOc1cccc2ccccc12)c1ccccc1 [NCGC00253658-01] | – | – | – | > 20 | – | 9.8615 | – | – | Basal_Viability ATP Colo 320 IC50/EC50 (Colo320; assay number 27): > 20 µM; Basal_Viability ATP SW480 IC50/EC50 (SW480; assay number 24): > 20 µM; Basal_Viability ATP SNU-C1 IC50/EC50 (SNU-C1; assay number 30): 12.8035 µM; Basal_Viability ATP HT-29 IC50/EC50 (HT-29; assay number 28): > 20 µM; Basal_Viability ATP RKO IC50/EC50 (RKO; assay number 29): 8.1098 µM; Basal_Viability ATP DLD-1 IC50/EC50 (DLD-1; assay number 23): > 20 µM
7 | O=C(O)C1(C(=O)O)CCC1.[NH2-].[NH2-].[Pt+2] [NCGC00263858-02] | > 20 | > 20 | > 20 | > 20 | > 20 | – | > 20 | > 20 | VEGF_ADSC\ECFC Angio CD31 TubeArea IC50/EC50 [2]: > 10 µM; VEGF_ADSC\ECFC Angio Hoechst NucArea IC50/EC50 [3]: > 10 µM
8 | C=Cc1c(C)c2cc3nc(cc4[nH]c(cc5nc(cc1[nH]2)C(C)=C5CCC(=O)O)c(CCC(=O)OC)c4C)[C@@]1(C)C3=CC=C(C(=O)OC)[C@@H]1C(=O)OC [NCGC00344558-01] | 9.6205 | 5.854 | 3.9401 | 5.6514 | 3.5296 | 4.2601 | – | > 6.667 | –
9 | Cc1cc2nc3c(=O)[nH]c(=O)nc-3n(C[C@H](O)[C@H](O)[C@H](O)COP(=O)([O-])OP(=O)([O-])OC[C@H]3O[C@@H](n4cnc5c(N)ncnc54)[C@H](O)[C@H]3O)c2cc1C.O.[Na+].[Na+] [NCGC00344578-01] | > 20 | > 20 | > 20 | > 20 | > 20 | > 20 | > 20 | > 20 | –
